Legend:
[1] = system: platelets; assay: In vitro platelet function after photochemical treatment and 8-hour RD treatment (Tables O, P); format: cell-based, human; details: RD 8 hours; for pH: T: 150 μM S-59, 3 Joules/cm^2 UVA; for (%) Aggregation / (%) HSR / (%) Microvesicle Formation / (%) p-Selectin-Positive / ATP / Bicarbonate / Glucose / Lactate / Morphology (Out Of 400) / Platelet Shape Change / Platelet count / pCO2 / pO2: T: S-59, UVA
Experimental: Two ABO-matched single donor PCs containing 2−5×10^11 platelets in approximately 300 mL of 35% plasma and 65% PAS III were pooled and redivided into two identical units in PL 2410 Plastic containers (Baxter). One unit (the control) was immediately placed on a platelet shaker and stored at approximately 22° C. The other unit (the test) was treated with 150 μM S-59 and 3 Joules/cm^2 UVA. After treatment, the platelets suspension was transferred into a second PL 2410 Plastic container containing a RD. Contact between platelets and the RD occurred for a period of approximately 8 hours, then the platelet suspension was transferred to a new PL 2410 Plastic container for storage. The time of blood donation was defined as day 0. Treatment with S-59, UVA (320-400 nm), and the RD was performed on day 1. Six replicate experiments were carried out, each with a different pool of two ABO-matched single-donor platelet concentrates.
For the evaluation of in vitro platelet function, platelet samples were withdrawn from both the control and test units before treatment and after treatment on days 2, 5, and 7. The following parameters were analyzed: pH, pO2, pCO2, bicarbonate concentration, platelet count, morphology, aggregation, platelet shape change, hypotonic shock response, lactate production, glucose consumption, ATP secretion, p-selectin expression, and microvesicle formation. Several of these assays, including pH, morphology score, platelet shape change, and hypotonic shock response, have been reported in the literature to correlate with in- vivo post-transfusion recovery and survival. The Student's paired t-test was used for statistical analysis.
For platelet count measurement, the volume of the control unit is approximately 5% less than the volume of the paired test unit; thus, for statistical analysis the platelet count per μL for the test unit was adjusted by a factor of […]. The pH of the treated platelets was maintained at 6.91±0.05 after seven days of storage following treatment.

[2] = HPLC of residual S-59 and photoproducts after RD containing Dowex XUS-43493 (Table N); format: physicochemical
Experimental: […] The unbound photoproducts can be monitored and quantified using a standard HPLC assay.
Samples were prepared for HPLC analysis according to the general procedure described in Example 39, infra. Briefly, the assay involved an initial sample preparation which lyses the platelets and solubilizes the S-59 and photoproducts. The supernatant from the sample preparation was then analyzed on a C-18 reverse phase column with a gradient of increasing methanol in KH2PO4 buffer. The major peaks were detected by optical absorbance.
Following illumination with 3.0 J/cm^2 UVA of a PC to which 15.2 mg S-59 had been added, the treated PC was incubated with the RD (contained within a PL 2410 Plastic container, Baxter) for 8 hours. Samples of the treated PC were then taken and subjected to HPLC for detection of residual S-59 and S-59 photoproducts. […] The Limit of Quantitation (LOQ) for the HPLC assay was 0.3 μM S-59.
The data described above indicate that the levels of residual photoproducts D and E are higher than levels of residual S-59 even thought the initial levels of D and E in the illuminated PC were much lower than S-59. […] The PC was assayed for unbound photoproducts using the HPLC assay discussed above, which quantifies the photoproducts present both within the platelets and in the plasma/PAS III mixture. […]

SMILES: Cc1oc2c(C)c3oc(=O)cc(C)c3cc2c1COCCN [Compound 2, 4′-(4-amino-2-oxa)butyl-4,5′,8-trimethylpsoralen]
- pH ([1]; Day 2): 6.94 ± 0.05
- pH ([1]; Day 5): 6.92 ± 0.06
- pH ([1]; Day 7): 6.91 ± 0.05
- (%) Aggregation ([1]; Day 2): 88 ± 4%
- (%) HSR ([1]; Day 2): 52 ± 5 %
- (%) Microvesicle Formation ([1]; Day 2): 0.9 ± 0.2%
- (%) p-Selectin-Positive ([1]; Day 2): 49 ± 5 %
- ATP ([1]; Day 2): 1.0 ± 0.1 Nmoles Per 10^8 Platelets
- Bicarbonate ([1]; Day 2): 6.3 ± 0.3 mM
- Glucose ([1]; Day 2): 4.6 ± 0.9 mM
- Lactate ([1]; Day 2): 4.7 ± 1.2 mM
- Morphology (Out Of 400) ([1]; Day 2): 302 ± 16
- Platelet Shape Change ([1]; Day 2): 1.0 ± 0.1
- Platelet count ([1]; Day 2): 1545 ± 247 × 10^−3/μL
- pCO2 ([1]; Day 2): 29.2 ± 3.8 mm Hg
- pO2 ([1]; Day 2): 68.3 ± 19.4 mm Hg
- (%) Aggregation ([1]; Day 5): 81 ± 7%
- (%) HSR ([1]; Day 5): 45 ± 3%
- (%) Microvesicle Formation ([1]; Day 5): 0.8 ± 0.2%
- (%) p-Selectin-Positive ([1]; Day 5): 58 ± 5%
- ATP ([1]; Day 5): 0.7 ± 0.2 Nmoles Per 10^8 Platelets
- Bicarbonate ([1]; Day 5): 4.8 ± 0.5 mM
- Glucose ([1]; Day 5): 2.1 ± 1.1 mM
- Lactate ([1]; Day 5): 8.5 ± 1.6 mM
- Morphology (Out Of 400) ([1]; Day 5): 290 ± 20
- Platelet Shape Change ([1]; Day 5): 0.9 ± 0.1
- Platelet count ([1]; Day 5): 1525 ± 246 × 10^−3/μL
- pCO2 ([1]; Day 5): 23.7 ± 3.5 mm Hg
- pO2 ([1]; Day 5): 84.8 ± 22.5 mm Hg
- (%) Aggregation ([1]; Day 7): 81 ± 4%
- (%) HSR ([1]; Day 7): 48 ± 8%
- (%) Microvesicle Formation ([1]; Day 7): 1.7 ± 1.7%
- (%) p-Selectin-Positive ([1]; Day 7): 60 ± 7%
- ATP ([1]; Day 7): 0.6 ± 0.2 Nmoles Per 10^8 Platelets
- Bicarbonate ([1]; Day 7): 4.2 ± 0.7 mM
- Glucose ([1]; Day 7): 0.8 ± 0.8 mM
- Lactate ([1]; Day 7): 10.8 ± 1.3 mM
- Morphology (Out Of 400) ([1]; Day 7): 274 ± 12
- Platelet Shape Change ([1]; Day 7): 0.9 ± 0.3
- Platelet count ([1]; Day 7): 1500 ± 219 × 10^−3/μL
- pCO2 ([1]; Day 7): 20.7 ± 2.4 mm Hg
- pO2 ([1]; Day 7): 88.8 ± 20.2 mm Hg
- Concentration Remaining (Average ± S.D.) ([2]; PC with 15.2 mg S-59, 3.0 J/cm^2 UVA, incubated 8 hours with RD containing Dowex XUS-43493, LOQ 0.3 μM): 270 ± 50 nM
- initial 15.2 mg of S-59 removed from PCs ([2]; following illumination and incubation with the RD): greater than 99%

From US6544727B1, “Methods and devices for the removal of psoralens from blood products” (Cerus Corporation, priority 1995, dated 2003)
